Patent publication US9314468B2, “Chemokine receptor modulators” (Altiris Therapeutics, Inc., priority 2008, dated 2016)
Where a name gives a salt, the structure may show the parent alone.

What was measured:
T-tropic HIV = assay: Phenoscreen HIV entry inhibition assay; assay type: cell-based; conditions: Human immunodeficiency virus 1, read-out: IC50 for viral entry inhibition
Procedure: A selected set of compounds are tested for their ability to inhibit the cellular entry of T-tropic HIV. The assay for this inhibition is carried out on a contractual basis at Monogram Biosciences, Inc. using their well established Phenoscreen™ assay. Briefly, HIV strains of interest are tagged with a luciferase indicator gene to create an appropriate test vector. The test vector is amplified through transfection and the resulting virus is incubated in the presence of target host cells where intracellular […] activity then becomes a measure of infection. Amplified virus is exposed to target host cells in the presence of a range of test drug concentrations to determine IC50 measurements of entry inhibition. A modification of this test is further reapplied as a novel drug assay used in partnership with a number of pharmaceutical companies to test the effectiveness of novel entry inhibitors that target specific chemokines. It can used to detect activity against T-tropic, M-tropic, and dual-tropic viruses and Monogram Biosciences has a large bank of over 10,000 different virus strains to ultimately asses the range of applicability of our chemokine modulators. Certain compounds are tested to establish efficacy in a number of viral strains.

hERG potassium channel = hERG potassium channel (Homo sapiens (Human), UniProt Q12809); assay: hERG potassium channel current, automatic patch clamp; assay type: cell-based; conditions: human, mammalian cells expressing hERG potassium channel
Procedure: (§1) The in vitro effects of the selected compounds on the hERG (human ether-á-go-go-related gene) potassium channel current (a surrogate for IKr, the rapidly activating, delayed rectifier cardiac potassium current) expressed in mammalian cells were evaluated at room temperature using the PatchXpress 7000A (Molecular Devices), an automatic parallel patch clamp system.

CXCR4 [1] = target: T1, CXCR4 (Homo sapiens (Human), UniProt P61073); assay: Functional calcium mobilization assay (SDF-1α induced); assay type: cell-based; conditions: Table 9, selected compounds; read-out: Ca Flux IC50
Procedure: Functional modulation of CXCR4 was determined by calcium mobilization assay using leukemic lymphoid CEM cells, which naturally express high levels of CXCR4. Generally, the assay is carried out as follows: Cells are grown in vitro to confluency. On the day of the assay, cells are removed from the incubator, culture medium removed and replaced with a calcium sensitive dye (Calcium3 assay kit; Molecular Devices, Sunnyvale, Calif.). The cells are allowed to dye load for 45-60 min at 37° C. in the cell culture incubator and then allowed to equilibrate to room temperature for no more than 15 min before assay.
Compound plates were generated containing up to 3% dimethyl sulfoxide in media kept at room temperature. Test compounds were added to the cells at a 1:3 dilution, and calcium mobilization was measured using a Flex Station fluorescence imager (Molecular Devices). This first read was used to determine direct agonist activation of the CXCR4 receptor by the test compounds. […] Full dose response curves were generated daily for SDF-1a to calculate IC50 concentrations. The IC50 values are reported. In cases, where one was not determined, a percent inhibition at the 1 μM concentration was extrapolated.
Functional calcium mobilization assay was conducted as described in Example 27.

[2] = Cytotoxicity assay, 6 days; assay type: cell-based; conditions: human, CCRF-CEM cells
Procedure: Cytotoxicity of the compounds was assessed by the following assay. CCRF-CEM cells in media (RPMI 1640, 15% FBS, Pen/Strep., 1% non-essential amino acids) are incubated with various concentrations of test compound for 6 days undisturbed. Cell number relative to no compound controls is determined using either Serotec's “Alamar blue” per manufacturers protocol or Promega's “Cell Titer 96 Aqueous One Solution Cell Proliferation Assay” kit per manufacturers protocol. The number cells not surviving after test compound administration is determined for each concentration tested and the EC50 (concentration of compound in which 50% of the cells survive) is determined

[3] = target: hERG (human ether-á-go-go-related gene) potassium channel (Homo sapiens (Human), UniProt Q12809); assay: hERG potassium channel current, automatic patch clamp; assay type: cell-based; conditions: PatchXpress, 5 minutes exposure, room temperature
Procedure: as §1

[4] = in vivo; cited from earlier work
CXCR4 [5] = target: T1, CXCR4; assay: Cellular impedance change induced by SDF-1a (cellular dielectric spectroscopy); assay type: cell-based; conditions: HeLa cells, endogenous CXCR4, EC50 concentration of SDF-1a, 30 minutes; read-out: Antagonist IC50
Procedure: This assay measures the change in impedance that occurs when cells are stimulated with SDF-1a. Changes in shape and cytoskeleton result in a change of impedance that is dependent on the activation of the CXCR4 receptor. This assay is contracted to MDS Pharma Services and performed as described in http://discovery.mdsps.com/Catalog/Services/Screening/CellKey/AssayDetails.aspx?id=7 (Assay 930070). Briefly, human HeLa cells expressing endogenous CXCR4 are grown in vitro and receptor activation in live cells is measured using cellular dielectric spectroscopy (CDS).

HIV = conditions: MT-4 cells; read-out: concentration required for 50% protection of HIV-induced cytopathogenicity; cited from earlier work
MT-4 cells = conditions: cited from earlier work

Sequence of hERG potassium channel (Q12809 whole entry): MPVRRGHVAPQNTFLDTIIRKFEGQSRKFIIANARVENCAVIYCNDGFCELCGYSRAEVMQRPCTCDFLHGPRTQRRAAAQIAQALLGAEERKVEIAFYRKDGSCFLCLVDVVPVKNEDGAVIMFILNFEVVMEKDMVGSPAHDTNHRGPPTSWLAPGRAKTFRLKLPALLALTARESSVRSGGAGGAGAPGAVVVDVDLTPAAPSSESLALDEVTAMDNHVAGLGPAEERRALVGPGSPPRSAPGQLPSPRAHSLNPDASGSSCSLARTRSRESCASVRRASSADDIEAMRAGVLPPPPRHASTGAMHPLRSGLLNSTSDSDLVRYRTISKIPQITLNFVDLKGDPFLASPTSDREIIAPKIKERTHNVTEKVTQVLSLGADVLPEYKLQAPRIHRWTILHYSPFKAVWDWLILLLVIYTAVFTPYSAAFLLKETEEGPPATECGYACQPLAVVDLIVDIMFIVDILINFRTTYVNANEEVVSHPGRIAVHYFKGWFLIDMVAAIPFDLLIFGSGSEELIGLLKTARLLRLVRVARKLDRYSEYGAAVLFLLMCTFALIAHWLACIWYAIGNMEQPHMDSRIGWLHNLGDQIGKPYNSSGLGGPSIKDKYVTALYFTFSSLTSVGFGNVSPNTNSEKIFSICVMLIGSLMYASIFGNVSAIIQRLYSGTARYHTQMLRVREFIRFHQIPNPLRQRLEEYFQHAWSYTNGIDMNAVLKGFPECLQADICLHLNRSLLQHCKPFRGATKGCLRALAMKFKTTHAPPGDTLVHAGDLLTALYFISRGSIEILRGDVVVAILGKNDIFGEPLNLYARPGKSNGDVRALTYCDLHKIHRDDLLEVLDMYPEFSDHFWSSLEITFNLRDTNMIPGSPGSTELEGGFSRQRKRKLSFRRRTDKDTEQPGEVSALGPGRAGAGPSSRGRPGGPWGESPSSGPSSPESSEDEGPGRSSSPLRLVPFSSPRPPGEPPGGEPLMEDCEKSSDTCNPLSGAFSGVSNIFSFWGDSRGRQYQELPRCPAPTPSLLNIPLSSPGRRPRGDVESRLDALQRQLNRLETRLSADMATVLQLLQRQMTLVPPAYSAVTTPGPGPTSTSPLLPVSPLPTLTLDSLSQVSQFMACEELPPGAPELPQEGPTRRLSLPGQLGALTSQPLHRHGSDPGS
Sequence of hERG (human ether-á-go-go-related gene) potassium channel (Q12809 whole entry): as above
T1 sequence (P61073 whole entry): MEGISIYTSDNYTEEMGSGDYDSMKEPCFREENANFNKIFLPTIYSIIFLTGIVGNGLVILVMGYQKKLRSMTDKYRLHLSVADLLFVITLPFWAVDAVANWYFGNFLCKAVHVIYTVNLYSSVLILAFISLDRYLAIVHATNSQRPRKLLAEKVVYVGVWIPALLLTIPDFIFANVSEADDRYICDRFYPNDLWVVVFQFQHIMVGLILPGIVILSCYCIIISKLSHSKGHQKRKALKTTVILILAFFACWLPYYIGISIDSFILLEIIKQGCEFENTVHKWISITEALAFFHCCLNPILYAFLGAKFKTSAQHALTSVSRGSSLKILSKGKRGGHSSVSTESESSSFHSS

In the case of `NCCCCN(Cc1nccc2c1[nH]c1ccccc12)C1CCCc2cccnc21` (stereo not drawn) [A, N-((9H-pyrido[3,4-b]indol-1-yl)methyl)-N-(4-aminobutyl)-5,6,7,8-tetrahydroquinolin-8-amine tetrahydrochloride], the IC50 (T-tropic HIV) is reported as at most 10000 nM.

Compound `NCCCCN(Cc1nccc2c3ccccc3n(CCN3CCNCC3)c12)[C@H]1CCCc2cccnc21` [drawing 829] has an inhibition at 5 min, 10 µM (hERG potassium channel) of 45%, an IC50 (CXCR4 [1]) of 55 nM and an EC50 at 6 days [2] of over 10000 nM.

With `NCCCCN(Cc1nccc2c3ccccc3n(CCCN)c12)[C@H]1CCCc2cccnc21` [drawing 827] the inhibition at 5 min, 10 µM (hERG potassium channel) was 46%, the IC50 (CXCR4 [1]) was 7 nM and the EC50 at 6 days [2] was 6400 nM.

Work on `CC(C)(C)OC(=O)Cn1c2ccccc2c2ccnc(CN(CCCN3CCNCC3)[C@H]3CCCc4cccnc43)c21` [drawing 825] yielded an inhibition at 5 min, 1 µM (hERG potassium channel) of 26%, an IC50 (CXCR4 [1]) of 37 nM and an EC50 at 6 days [2] of 600 nM.

Work on `NCCCCN(Cc1nccc2c3ccccc3n(CC(=O)O)c12)[C@H]1CCCc2cccnc21` [drawing 820] yielded an IC50 [3] of 2700 nM, an IC50 (CXCR4 [1]) of 22 nM and an EC50 at 6 days [2] of 30000 nM.

For `C[C@@H]1CN(C(=O)Cn2c3ccccc3c3ccnc(CN(CCCCN)[C@H]4CCCc5cccnc54)c32)C[C@H](C)O1` [drawing 826], the inhibition at 5 min, 1 µM (hERG potassium channel) was 18%, the IC50 (CXCR4 [1]) was 123 nM and the EC50 at 6 days [2] was 5300 nM.

Work on `O=C(O)Cn1c2ccccc2c2ccnc(CN(CCCN3CCNCC3)[C@H]3CCCc4cccnc43)c21` [drawing 828] yielded an inhibition at 5 min, 10 µM (hERG potassium channel) of 20%, an IC50 (CXCR4 [1]) of 113 nM and an EC50 at 6 days [2] of over 10000 nM.

In the case of `c1cnc2c(c1)CCCC2N(CCCN1CCNCC1)Cc1nccc2c3ccccc3n(CCN3CCOCC3)c12` (stereo not drawn) [drawing 830], the IC50 [3] is reported as 3100 nM and the IC50 (CXCR4 [1]) is reported as 24 nM.

`CC(C)CN(CCC[C@H](NC1CCCc2cccnc21)C(=O)N[C@H](C)c1cccc2ccccc12)CC(C)C` (stereo partly drawn) [AY, (S)-5-(diisobutylamino)-N-((R)-1-(naphthalen-1-yl)ethyl)-2-(5,6,7,8-tetrahydroquinolin-8-ylamino)pentanamide trihydrochloride] gave an IC50 (T-tropic HIV) of at most 10000 nM.

Compound `NCCCCN(Cc1cn(-c2ccccc2)nn1)C1CCCc2cccnc21` (stereo not drawn) [Z, N-(4-aminobutyl)-N-((1-phenyl-1H-1,2,3-triazol-4-yl)methyl)-5,6,7,8-tetrahydro-quinolin-8-amine tetrahydrochloride] has an IC50 (T-tropic HIV) of at most 10000 nM.

Work on `O=C(Cn1c2ccccc2c2ccnc(CN(CCCN3CCNCC3)[C@H]3CCCc4cccnc43)c21)C1CCOCC1` yielded an inhibition at 5 min, 10 µM (hERG potassium channel) of 25%, an IC50 (CXCR4 [1]) of 44 nM and an EC50 at 6 days [2] of 30000 nM.

With `CN1CCN(C(=O)Cn2c3ccccc3c3ccnc(CN(CCCCN)[C@H]4CCCc5cccnc54)c32)CC1` [drawing 823] the inhibition at 5 min, 10 µM (hERG potassium channel) was 39%, the IC50 (CXCR4 [1]) was 30 nM and the EC50 at 6 days [2] was 50000 nM.

In the case of `NCCCCN(Cc1nccc2c3ccccc3n(CC(=O)NC3CCNCC3)c12)C1CCCc2cccnc21` (stereo not drawn) [drawing 821], the inhibition at 5 min, 10 µM (hERG potassium channel) is reported as 16%, the IC50 (CXCR4 [1]) is reported as 126 nM and the EC50 at 6 days [2] is reported as 30000 nM.

With `NCCCCN(Cc1cccc2cc[nH]c12)C1CCCc2cccnc21` (stereo not drawn) [B, N1-((1H-indol-7-yl)methyl)-N1-(5,6,7,8-tetrahydroquinolin-8-yl)butane-1,4-diamine] the IC50 (T-tropic HIV) was at most 10000 nM.

For `c1cc(CN2CCCNCCNCCCNCC2)ccc1CN1CCCNCCNCCCNCC1` [AMD3100], the “side effect in clinical study” value [4] is given as “cardiac-related side effect”.

`NCCCCN(Cc1nccc2c3ccccc3n(CC(N)=O)c12)[C@H]1CCCc2cccnc21` [drawing 832] gave an IC50 [3] of 1800 nM and an IC50 (CXCR4 [1]) of 18 nM.

`c1ccc(-n2cc(CN(CCCCNCc3ccccn3)C3CCCc4cccnc43)nn2)cc1` (stereo not drawn) [AB, N1-((1-phenyl-1H-1,2,3-triazol-4-yl)methyl)-N4-(pyridin-2-ylmethyl)-N1-(5,6,7,8-tetrahydroquinolin-8-yl)butane-1,4-diamine hydrochloride] gave an IC50 (T-tropic HIV) of at most 10000 nM.

In the case of `NCCCCN(Cc1nccc2c3ccccc3n(CC(=O)N3CCOCC3)c12)[C@H]1CCCc2cccnc21` [drawing 819], the inhibition at 5 min, 10 µM (hERG potassium channel) is reported as 42%, the IC50 (CXCR4 [1]) is reported as 12 nM and the EC50 at 6 days [2] is reported as 30000 nM.

In the case of `NCCCCN(Cc1nccc2c3ccccc3n(CCCN3CCNCC3)c12)[C@H]1CCCc2cccnc21` [drawing 822], the IC50 [3] is reported as 4100 nM, the IC50 (CXCR4 [1]) is reported as 16 nM and the EC50 at 6 days [2] is reported as 30000 nM.

Work on `C[C@@H]1CN(C(=O)Cn2c3ccccc3c3ccnc(CN(CCCCN)C4CCCc5cccnc54)c32)C[C@H](C)O1` (stereo partly drawn) yielded an IC50 (CXCR4 [5]) of 9.9 nM.

With `NCCCCN(Cc1nccc2c3ccccc3n(CCN3CCOCC3)c12)C1CCCc2cccnc21` (stereo not drawn) the IC50 (CXCR4 [5]) was 7.7 nM.

`CN(Cc1nnc(-c2ccccc2)n1C)C1CCCc2cccnc21` (stereo not drawn) [BP, N-methyl-N-((4-methyl-5-phenyl-4H-1,2,4-triazol-3-yl)methyl)-5,6,7,8-tetrahydroquinolin-8-amine] showed an IC50 (T-tropic HIV) of at most 10000 nM.

In the case of `NCCCCN(Cc1nccc2c3ccccc3n(CC(=O)NC3CCNCC3)c12)C1CCCc2cccnc21` (stereo not drawn) [drawing 814], the IC50 (CXCR4 [5]) is reported as 12 nM.

In the case of TN14003, the EC50 (HIV) is listed as 0.6 nM and the “concentration leading to 50% toxicity” value (MT-4 cells) is listed as 410.

Compound `NCCCCN(Cc1nccc2c3ccccc3n(CCN3CCNCC3)c12)C1CCCc2cccnc21` (stereo not drawn) has an IC50 (CXCR4 [5]) of 5.7 nM.

`O=C(Cn1c2ccccc2c2ccnc(CN(CCCN3CCNCC3)C3CCCc4cccnc43)c21)N1CCOCC1` (stereo not drawn) showed an IC50 (CXCR4 [5]) of 15 nM.
